Results: patent publication US8802597B2, “Herbicidal pyrimidines” (E I du Pont de Nemours and Company, priority 2003, dated 2014)

Experiments:
Type in all cases: in vivo
[1] = test system: water seeded rice seedlings (Oryza sativa cv. ‘Japonica-M202’); assay: Test E flooded paddy water application; details: Flood, 21 days, scale 0 to 100 (0 no effect, 100 complete control)
Text: (§1) Three plastic pots (ca. 16-cm diameter) per rate were partially filled with sterilized Tama silt loam soil comprising a 35:50:15 ratio of sand, silt and clay and 2.6% organic matter. Separate plantings for each of the three pots were as follows. Seeds from the U.S. of ducksalad (Heteranthera limosa), smallflower umbrella sedge (Cyperus difformis) and purple redstem (Ammannia coccinea), were planted into one 16-cm pot for each rate. Seeds from the U.S. of rice flatsedge (Cyperus iria), bearded (brdd.) sprangletop (Leptochloa fusca ssp. fascicularis), one stand of 9 or 10 water seeded rice seedlings (Oryza sativa cv. ‘Japonica-M202’), and one stand of 6 transplanted rice seedlings (Oryza sativa cv. ‘Japonica-M202’) were planted into one 16-cm pot for each rate. Seeds from the U.S. of barnyardgrass (Echinochloa crus-galli), late watergrass (Echinochloa oryzicola), early watergrass (Echinochloa oryzoides) and junglerice (Echinochloa colona) were planted into one 16-cm pot for each rate. Plantings were sequential so that crop and weed species were at the 2.0 to 2.5-leaf stage at time of treatment.
(§2) Potted plants were grown in a greenhouse with day/night temperature settings of 29.5/26.7° C., and supplemental balanced lighting was provided to maintain a 16-hour photoperiod. Test pots were maintained in the greenhouse until test completion.
(§3) At time of treatment, test pots were flooded to 3 cm above the soil surface, treated by application of test compounds directly to the paddy water, and then maintained at that water depth for the duration of the test. Effects of treatments on rice and weeds were visually evaluated by comparison to untreated controls after 21 days. Plant response ratings, summarized in Table E, are based on a scale of 0 to 100 where 0 is no effect and 100 is complete control. A dash (-) response means no test result.

[2] = test system: smallflower umbrella sedge (Cyperus difformis); assay: Test E flooded paddy water application; details: Flood, 21 days, scale 0 to 100 (0 no effect, 100 complete control)
Text: as §1, §2, §3

[3] = test system: bearded (brdd.) sprangletop (Leptochloa fusca ssp. fascicularis); assay: Test E flooded paddy water application; details: Flood, 21 days, scale 0 to 100 (0 no effect, 100 complete control)
Text: as §1, §2, §3

[4] = test system: barnyardgrass (Echinochloa crus-galli); assay: Test E flooded paddy water application; details: Flood, 21 days, scale 0 to 100 (0 no effect, 100 complete control)
Text: as §1, §2, §3

[5] = test system: ducksalad (Heteranthera limosa); assay: Test E flooded paddy water application; details: Flood, 21 days, scale 0 to 100 (0 no effect, 100 complete control)
Text: as §1, §2, §3

[6] = test system: junglerice (Echinochloa colona); assay: Test E flooded paddy water application; details: Flood, 21 days, scale 0 to 100 (0 no effect, 100 complete control)
Text: as §1, §2, §3

[7] = test system: rice flatsedge (Cyperus iria); assay: Test E flooded paddy water application; details: Flood, 21 days, scale 0 to 100 (0 no effect, 100 complete control)
Text: as §1, §2, §3

[8] = test system: early watergrass (Echinochloa oryzoides); assay: Test E flooded paddy water application; details: Flood, 21 days, scale 0 to 100 (0 no effect, 100 complete control)
Text: as §1, §2, §3

[9] = test system: late watergrass (Echinochloa oryzicola); assay: Test E flooded paddy water application; details: Flood, 21 days, scale 0 to 100 (0 no effect, 100 complete control)
Text: as §1, §2, §3

[10] = test system: transplanted rice seedlings (Oryza sativa cv. ‘Japonica-M202’); assay: Test E flooded paddy water application; details: Flood, 21 days, scale 0 to 100 (0 no effect, 100 complete control)
Text: as §1, §2, §3

[11] = test system: purple redstem (Ammannia coccinea); assay: Test E flooded paddy water application; details: Flood, 21 days, scale 0 to 100 (0 no effect, 100 complete control)
Text: as §1, §2, §3

[12] = test system: redroot pigweed (Amaranthus retroflexus); assay: Test A pre/postemergence
Procedure, shortened: (§4)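 Pre/post greenhouse screen; loam/sand soil; solvent + surfactant formulation; pre = directed soil spray at planting, post = 1–2 leaf plants, 2–10 cm; ~10 d; visual 0–100 rating vs untreated.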

[13] = test system: crabgrass (Digitaria sanguinalis); assay: Test A pre/postemergence
Procedure, shortened: as §4

[14] = test system: barnyardgrass (Echinochloa crus-galli); assay: Test A pre/postemergence
Procedure, shortened: as §4

[15] = test system: morningglory (Ipomoea spp.); assay: Test A pre/postemergence
Procedure, shortened: as §4

[16] = test system: velvetleaf (Abutilon theophrasti); assay: Test A pre/postemergence
Procedure, shortened: as §4

[17] = test system: giant foxtail (Setaria faberi); assay: Test A pre/postemergence
Procedure, shortened: as §4

[18] = Postemergence, 125 g ai/ha, 0 to 100 scale (0 no effect, 100 complete control)
[19] = Postemergence, 500 g ai/ha, 0 to 100 scale (0 no effect, 100 complete control)
[20] = Preemergence, 125 g ai/ha, 0 to 100 scale where 0 is no effect and 100 is complete control, approximately ten days
[21] = Preemergence, 500 g ai/ha, 0 to 100 scale where 0 is no effect and 100 is complete control, approximately ten days

COC(=O)c1nc(-c2ccc(C)cc2)nc(N)c1Cl [Compound 84]
Rice, Water Seeded plant response rating ([1]; 32 g ai/ha): 0
Rice, Water Seeded plant response rating ([1]; 64 g ai/ha): 0
Rice, Water Seeded plant response rating ([1]; 125 g ai/ha): 0
Rice, Water Seeded plant response rating ([1]; 250 g ai/ha): 30
Plant response rating, Rice, Water Seeded ([1]; 16 g ai/ha): 0
Sedge, Umbrella plant response rating ([2]; 32 g ai/ha): 80
Sedge, Umbrella plant response rating ([2]; 64 g ai/ha): 80
Sedge, Umbrella plant response rating ([2]; 125 g ai/ha): 90
Sedge, Umbrella plant response rating ([2]; 250 g ai/ha): 100
Plant response rating, Sedge, Umbrella ([2]; 16 g ai/ha): 70
Sprangletop, Brdd. plant response rating ([3]; 32 g ai/ha): 0
Sprangletop, Brdd. plant response rating ([3]; 64 g ai/ha): 0
Sprangletop, Brdd. plant response rating ([3]; 125 g ai/ha): 0
Sprangletop, Brdd. plant response rating ([3]; 250 g ai/ha): 40
Plant response rating, Sprangletop, Brdd. ([3]; 16 g ai/ha): 0
Barnyardgrass plant response rating ([4]; 32 g ai/ha): 0
Barnyardgrass plant response rating ([4]; 64 g ai/ha): 0
Barnyardgrass plant response rating ([4]; 125 g ai/ha): 20
Barnyardgrass plant response rating ([4]; 250 g ai/ha): 85
Plant response rating, Barnyardgrass ([4]; 16 g ai/ha): 0
Ducksalad plant response rating ([5]; 32 g ai/ha): 100
Ducksalad plant response rating ([5]; 64 g ai/ha): 100
Ducksalad plant response rating ([5]; 125 g ai/ha): 100
Ducksalad plant response rating ([5]; 250 g ai/ha): 100
Plant response rating, Ducksalad ([5]; 16 g ai/ha): 100
Junglerice plant response rating ([6]; 32 g ai/ha): 0
Junglerice plant response rating ([6]; 64 g ai/ha): 0
Junglerice plant response rating ([6]; 125 g ai/ha): 50
Junglerice plant response rating ([6]; 250 g ai/ha): 50
Plant response rating, Junglerice ([6]; 16 g ai/ha): 0
Flatsedge, Rice plant response rating ([7]; 32 g ai/ha): 35
Flatsedge, Rice plant response rating ([7]; 64 g ai/ha): 60
Flatsedge, Rice plant response rating ([7]; 125 g ai/ha): 60
Flatsedge, Rice plant response rating ([7]; 250 g ai/ha): 80
Plant response rating, Flatsedge, Rice ([7]; 16 g ai/ha): 25
Watergrass, Early plant response rating ([8]; 32 g ai/ha): 0
Watergrass, Early plant response rating ([8]; 64 g ai/ha): 10
Watergrass, Early plant response rating ([8]; 125 g ai/ha): 20
Watergrass, Early plant response rating ([8]; 250 g ai/ha): 30
Plant response rating, Watergrass, Early ([8]; 16 g ai/ha): 0
Watergrass, Late plant response rating ([9]; 32 g ai/ha): 0
Watergrass, Late plant response rating ([9]; 64 g ai/ha): 0
Watergrass, Late plant response rating ([9]; 125 g ai/ha): 0
Watergrass, Late plant response rating ([9]; 250 g ai/ha): 20
Plant response rating, Watergrass, Late ([9]; 16 g ai/ha): 0
Rice, Transplanted plant response rating ([10]; 32 g ai/ha): 0
Rice, Transplanted plant response rating ([10]; 64 g ai/ha): 0
Rice, Transplanted plant response rating ([10]; 125 g ai/ha): 0
Rice, Transplanted plant response rating ([10]; 250 g ai/ha): 20
Plant response rating, Rice, Transplanted ([10]; 16 g ai/ha): 0
Redstem plant response rating ([11]; 32 g ai/ha): 20
Redstem plant response rating ([11]; 64 g ai/ha): 20
Redstem plant response rating ([11]; 125 g ai/ha): 70
Redstem plant response rating ([11]; 250 g ai/ha): 100
Plant response rating, Redstem ([11]; 16 g ai/ha): 0
Plant response rating, Pigweed [12, 18]: 60
Plant response rating, Pigweed [12, 19]: 65
Plant response rating, Pigweed [12, 20]: 0
Plant response rating, Pigweed [12, 21]: 80
Plant response rating, Crabgrass [13, 18]: 0
Plant response rating, Crabgrass [13, 19]: 10
Plant response rating, Crabgrass [13, 20]: 0
Plant response rating, Crabgrass [13, 21]: 15
Plant response rating, Barnyardgrass [14, 18]: 55
Plant response rating, Barnyardgrass [14, 19]: 80
Plant response rating, Barnyardgrass [14, 20]: 0
Plant response rating, Barnyardgrass [14, 21]: 25
Plant response rating, Morningglory [15, 18]: 5
Plant response rating, Morningglory [15, 19]: 20
Plant response rating, Morningglory [15, 20]: 0
Plant response rating, Morningglory [15, 21]: 0
Plant response rating, Velvetleaf [16, 18]: 75
Plant response rating, Velvetleaf [16, 19]: 90
Plant response rating, Velvetleaf [16, 20]: 15
Plant response rating, Velvetleaf [16, 21]: 70
Plant response rating, Foxtail, Giant [17, 18]: 0
Plant response rating, Foxtail, Giant [17, 19]: 20
Plant response rating, Foxtail, Giant [17, 20]: 0
Plant response rating, Foxtail, Giant [17, 21]: 20
